Consider four compounds from EP1519709B1, “NOVEL COSMETIC APPLICATIONS OF POLYPHENOLS AND DERIVATIVES THEREOF” (Caudalie, priority 2002, dated 2004).

Where two headings read alike, the source gives them in different places.

This test addresses tyrosinase (enzyme EC 1.14.18,1, issue de champignon). As to the kind of experiment: Tyrosinase inhibition test (L-dopa to dopachrome, read at 475 nm). Type of test: biochemical. As to conditions: for IC50: read-out: CI50 (the source's name). The protocol:
Mélange A : l'échantillon à tester à différentes concentrations (200 μL), ainsi qu'un "contrôle" (tampon phosphate, pH 6,5), sont incubés pendant 30 minutes à 37°C en présence de tyrosinase (enzyme EC 1.14.18,1, issue de champignon; 200μL, 300 U/mL). Mélange B : 200 μL de L-dopa (2,5 mM) sont additionnés à 400 μL de tampon phosphate (pH 6,5). Après les 30 minutes d'incubation, le mélange A est ajouté au mélange B et la dopachrome produite est mesurée à 475 nm au bout d'une minute […].

Where [1] appears, read: mushroom tyrosinase 300 U/mL, 30 min preincubation at 37°C, phosphate buffer pH 6,5, L-dopa 2,5 mM, dopachrome at 475 nm, mean with spread, n in cell.

In the case of `Oc1ccc(C=Cc2cc(O)cc(O)c2)cc1` [Bloc II, resvératrol, reference compound], the IC50 (bounds stated in running text for the tyrosinase inhibition tests under the conditions of the examples) is above 60 µM. `Oc1ccc(/C=C/c2cc(O)cc3c2[C@@H](c2cc(O)cc(O)c2)[C@H](c2ccc(O)cc2)O3)cc1` [Bloc VIII, ε-viniférine]: the “IC50 of the dimer relative to that of the monomer (resvératrol)” value (tyrosinase inhibition test) was below 10 fois. For `Oc1ccc(C=Cc2cc(O)cc(O)c2)cc1` [II], under setting [1], the IC50 came to 61.4 µM. Consider `Oc1ccc(C=Cc2cc(O)cc3c2C(c2cc(O)cc(O)c2)C(c2ccc(O)cc2)O3)cc1` (stereo not shown) [VIII], for which, under setting [1], the IC50 is 10.4 µM.
